# In patent US20220226321A1, “INHIBITOR OF MNK FOR THE TREATMENT OF NEUROPATHIC PAIN” (Board of Regents, The University of Texas System, priority 2019, published 2022):
# Tests used:
# DRG neurons [1] = assay: patch-clamp electrophysiology of DRG neurons exposed to IFN-α; conditions: 300 U/mL, ~1 h
# mice [2] = assay: thermal latency (Hargreaves) after type I IFN or poly (I:C); assay type: in vivo, mouse
# Description: (§1) Behavior. Mice were housed on 12-hour light/dark cycles with food and water available ad libitum. Mice were randomized to groups from multiple cages to avoid using mice from experimental groups that were cohabitating. Sample size was estimated by performing a power calculation using G*Power (version 3.1.9.2). With 80% power and an expectation of d=2.2 effect size in behavioral experiments, and a set to 0.05, the sample size required was calculated as n=6 per group. The inventors therefore sought to have at least n=6 sample in all behavioral experiments. SD (set at 0.3) for the power calculation was based on previously published mechanical threshold data from the inventors' lab (Moy et al., 2017). Animals were habituated for 1 hour to clear acrylic behavioral chambers before beginning the experiment. For intraplantar injections, drugs were injected in a total volume of 25 μL through a 30-gauge needle. For intraperitoneal injections, drugs were administered in a volume of 100 μL Mechanical paw withdrawal thresholds in mice were measured using the up-down method (Chaplan et al., 1994) with calibrated von Frey filaments (Stoelting Company, WoodDale, Ill.). Thermal latency was measured using a Hargreaves device (IITC Life Science) (Hargreaves et al., 1988) with heated glass settings of 29° C., 40% active laser power, and 20 sec cutoff were used. The experimenter was blinded to the genotype of the mice and the drug condition in all experiments.
# eIF4E [3] = assay: immunocytochemistry of p-eIF4E in cultured DRG neurons; assay type: cell-based, mouse; conditions: 300 U/mL, one-hour stimulation
# Description: Immunofluorescence. For primary neuronal cultures, DRG neurons were harvested and cultured for 6 days according to the protocol described above with the exception that cells were distributed evenly on poly-D-lysine-coated 8-well chamber slide with removable wells (cat #12-565-8, Fisher Scientific). After treatments, cells were fixed in ice-cold 10% formalin in 1×PBS for 1 h and processed for immunocytochemistry (ICC). Cells were washed with 1×PBS and permeabilized in 1×PBS containing 10% heat-inactivated normal goat serum (NGS; Atlanta Biologicals, Atlanta, Ga.) and 0.02% Triton X-100 (Sigma) in 1×PBS for 30 min and then blocked in 10% NGS in 1×PBS for 2 h. […] Images were taken using an Olympus FluoView 1200 confocal microscope and analyzed with FIJI for Mac OS X. Images shown are representative of samples taken from 3 separate wells and presented as projections of Z stacks. Using ImageJ, the corrected total cell fluorescence (CTCF) was calculated to determine the intensity of the signal between experimental groups. To do so, the integrated density and the area, as well as the background noise was measured and the CTCF calculated as equal to: the integrated density −(area of selected cell×mean fluorescence of background readings). CTCF values from all experimental treatment groups were normalized to vehicle groups and expressed as normalized CTCF.
# mice [4] = assay: mechanical paw withdrawal threshold (von Frey) after type I IFN or poly (I:C); assay type: in vivo, mouse
# Description: as §1
# cultured DRG neurons = assay: Western blot of cultured DRG neurons treated with IFN-α, IFN-β, ISRIB or poly (I:C); assay type: cell-based, mouse
# Description: Primary cell culture of mouse DRG neurons and Western blot. Cultured primary DRG neurons were used to test the effects of IFN-α [(300 units (U)/mL] and IFN-β [(300 units (U)/mL] application. For these experiments, mice were anesthetized with isoflurane and killed by decapitation. Then DRGs, from all spinal levels, were dissected and placed in chilled Hanks balanced-salt solution (HBSS, Invitrogen) until processed. Dorsal root ganglia were digested in 1 mg/mL collagenase A (Roche, Mannheim, Germany) for 25 minutes at 37° C. then subsequently digested in a 1:1 mixture of 1 mg/mL collagenase D and papain (Roche) for 20 minutes at 37° C. After this step, dorsal root ganglia were then triturated in a 1:1 mixture of 1 mg/mL trypsin inhibitor (Roche) and bovine serum albumin (BioPharm Laboratories, Bluffdale, Utah), then filtered through a 70 μm cell strainer (Corning, N.Y.). Cells were pelleted then resuspended in DMEM/F12 with GlutaMAX (Thermo Fisher Scientific, MA) containing 10% fetal bovine serum (FBS; Thermo Fisher Scientific), 5 ng/mL NGF, 1% penicillin and streptomycin, and […] to inhibit mitosis of non-neuronal cells and were distributed evenly in a 6-well plate coated with poly-D-lysine (Becton Dickinson, NJ). DRG neurons were maintained in a 37° C. incubator containing 5% CO2 with a media change every other day. On day 6, DRG neurons were treated with either vehicle, IFN-α or IFN-β for 1, 3, 6 and 24 h. Following treatments, cells were rinsed with chilled 1×PBS buffer, harvested in 200 μL of RIPA lysis buffer (50 mM Tris, pH 7.4, 150 mM NaCl, 1 mM EDTA, pH 8.0, and 1% Triton X-100) containing protease and phosphatase inhibitors (Sigma-Aldrich), and then sonicated for 5 seconds. To clear debris, samples were centrifuged at 14,000 rpm for 15 min at 4° C. Ten to 15 μg of protein was loaded into each well and separated by a 10% SDS-PAGE gel. Proteins were transferred to a 0.45 PVDF membrane (Millipore, MA) at 30 V overnight at 4° C. Subsequently, membranes were blocked with 5% non-fat dry milk in 1× Tris buffer solution containing Tween 20 (TTBS) for at least 2 h. Membranes were washed 3 times for 10 minutes each (3×10) in 1×TTBS, then incubated with primary antibodies overnight at 4° C. The following day, membranes were washed 3×10 each then incubated with the corresponding secondary antibodies at room temperature for 1 h. After incubation, membranes were washed with 1×TTBS 3×10 each. Signals were detected using Immobilon Western Chemiluminescent HRP Substrate (Millipore) and then visualized with Bio-Rad ChemiDoc Touch. Membranes were stripped using Restore Western Blot Stripping buffer (Thermo Fisher Scientific) and reprobed with another antibody. Analysis was performed using Image lab 6.0.1 software for Mac (Bio-Rad, Hercules, Calif.).
# DRG neurons [5] = conditions: prior work; cited from earlier work
# mice [6] = conditions: Moy et al. (2017); cited from earlier work
# SNI mice = conditions: neuropathic mice (Shiers et al., 2018); cited from earlier work
# infralimbic cortex = conditions: neuropathic mice (Shiers et al., 2018); cited from earlier work
# eIF4E [7] = assay: immunohistochemistry of p-eIF4E and eIF4E in L5 DRGs; assay type: in vivo, mouse; conditions: WT mice, day 2, 3 hr post 2nd injection
# Description: For tissues, animals were anesthetized with isoflurane and killed by decapitation, and tissues were frozen in O.C.T. on dry ice. Spinal cords were pressure ejected using chilled 1×PBS. Sections of L4-L5 DRGs ([…]) were mounted onto SuperFrost Plus slides (Thermo Fisher Scientific) and fixed in ice-cold 10% formalin in 1×PBS for 1 h then subsequently washed 3×10 each in 1×PBS and processed for immunohistochemistry (IHC). Slides were permeabilized in 50% ethanol for 30 min. After 30 min, slides were washed 3×10 each in 1×PBS. Tissues were blocked for at least 2 h in 1×PBS and 10% NGS. Primary antibodies against NeuN, peripherin, p-eIF4E^S209 and eIF4E were applied and incubated with DRG sections on slides at 4° C. overnight. Immunoreactivity was visualized after 1 h incubation with Alexa Fluor secondary antibodies at room temperature. Images were taken using an Olympus FluoView 1200 confocal microscope. Images are presented as projections of Z stacks, and they are representative of samples taken from 3 animals.
# [8] = body temperature after intraperitoneal poly (I:C); assay type: in vivo, mouse; conditions: 1 mg/kg i.p.
# [9] = 1 mg/kg i.p. for 2 consecutive days, 3-24 h after second administration
molecule,measurement,setting,value
IFN-α,"excitability, number of action potentials elicited by ramp current injections",DRG neurons [1],elevated excitability
same,latency to the first spike following ramp current injection,DRG neurons [1],shortened the latency
same,resting membrane potential (RMP),DRG neurons [1],-47.5±2.5 mV
same,thermal hypersensitivity,"mice [2]; female mice, i.pl. 300 U/25 μL",no significant changes
same,paw withdrawal latency to thermal stimulation,"mice [2]; male mice, i.pl. 300 U/25 μL",no significant changes
same,phosphorylation of eIF4E (ICC),eIF4E [3],stimulated phosphorylation of eIF4E
same,hind paw mechanical hypersensitivity,"mice [4]; female mice, i.pl. 300 U/25 μL",increased hind paw mechanical hypersensitivity
same,mechanical hypersensitivity to von Frey filament stimulation,"mice [4]; male mice, i.pl. 300 U/25 μL",rapid mechanical hypersensitivity
same,AKT phosphorylation,cultured DRG neurons; 300 U/mL,stimulated AKT phosphorylation
same,ERK and eIF4E phosphorylation,cultured DRG neurons; 300 U/mL,increase
same,downstream JAK/STAT signaling pathways,cultured DRG neurons; 300 U/mL,rapidly activated
same,BiP expression or signaling via PKR and downstream p-eIF2α,"cultured DRG neurons; 300 U/mL, 1-6 h",did not modify
same,PKR phosphorylation,"cultured DRG neurons; 300 U/mL, long exposure (24 h)",did not modify
same,mTOR or ribosomal protein S6 phosphorylation,"cultured DRG neurons; 300 U/mL, time course of 6 h",did not observe any changes
CC(=O)C1=C(O)C=C2Oc3c(C(N)=O)c(O)cc(O)c3[C@]2(C)C1=O [cercosporamide],IL-6 induced DRG nociceptor excitability,DRG neurons [5],attenuated
same,cold hypersensitivity induced by peripheral nerve injury,mice [6],reduced
CN(C)C(=N)N=C(N)N [metformin],cognitive deficits,SNI mice,attenuated
same,AIS shrinkage in the IL,infralimbic cortex,attenuated
poly (I:C),thermal hypersensitivity,mice [2]; [9],thermal hypersensitivity
same,mechanical hypersensitivity,mice [4]; [9],developed mechanical hypersensitivity
same,"p-ERK, p-eIF4E, p-PKR or p-eIF2α",cultured DRG neurons; direct application 10 μg/mL,did not increase
same,phosphorylated eIF4E immunoreactivity in L5 DRGs,eIF4E [7],increased phosphorylated eIF4E immunoreactivity
same,total eIF4E protein in L5 DRGs,eIF4E [7],without affecting total eIF4E protein
same,core body temperature,[8],increase in core body temperature
